What was measured:
RXRγ = test: ligand binding assay, RXRγ; settings: read-out: RXR Bind Ki γ
Excerpt: (§1) Other assays described below, measure the ability of the compounds of the present invention to bind to, and/or activate various retinoid receptor subtypes. When in these assays a compound binds to a given receptor subtype and activates the transcription of a reporter gene through that subtype, then the compound is considered an agonist of that receptor subtype. […] In the below described assays the ability of the compounds to bind to RARα, RARβ, RARγ, RXRα, RXRβ and RXRγ receptors, and the ability or inability of the compounds to activate transcription of a reporter gene through these receptor subtypes can be tested. […] However, some of the compounds of the invention may behave as retinoid antagonists or partial antagonists and/or as inverse agonists. Because of the complex distribution of the different retinoid receptors in various organs of the mammalian body partial agonists and partial antagonists and compounds which have the characteristics of both may lend themselves to particularly useful therapeutic applications and may avoid serious side effects of conventional retinoid drugs.
(§2) A holoreceptor transactivation assay and a ligand binding assay which measure the antagonist/agonist like activity of the compounds of the invention, or their ability to bind to the several retinoid receptor subtypes, respectively, are described in published PCT Application No. WO WO93/11755 (particularly on pages 30-33 and 37-41) published on Jun. 24, 1993, the specification of which is also incorporated herein by reference. A detailed experimental procedure for holoreceptor transactivations has been described by Heyman et al. Cell 68, 397-406, (1992); Allegretto et al. J. Biol. Chem. 268, 26625-26633, and Mangelsdorf et al. The Retinoids: Biology, Chemistry and Medicine, pp 319-349, Raven Press Ltd., New York, which are expressly incorporated herein by reference. The results obtained in this assay are expressed in EC50 numbers, as they are also in the chimeric receptor transactivation assay. The results of ligand binding assay are expressed in Kd numbers. (See Cheng et al. Biochemical Pharmacology Vol. 22 pp 3099-3108, expressly incorporated herein by reference.)
(§3) Table 1 discloses the activity of certain exemplary compounds of the invention in the above-described chimeric receptor transactivation assay, holoreceptor transactivation assay and a ligand binding assays. Particularly, the transactivation data pertaining to RAR receptors were obtained in the chimeric assay, and the data pertaining to transactivation of RXR receptors were obtained in the holoreceptor transactivation assay.

RARγ = target: T1, RARγ (Homo sapiens, UniProt P13631); test: ligand binding assay, RARγ; settings: read-out: RAR Bind. Ki γ
T1 sequence (P13631 1-454): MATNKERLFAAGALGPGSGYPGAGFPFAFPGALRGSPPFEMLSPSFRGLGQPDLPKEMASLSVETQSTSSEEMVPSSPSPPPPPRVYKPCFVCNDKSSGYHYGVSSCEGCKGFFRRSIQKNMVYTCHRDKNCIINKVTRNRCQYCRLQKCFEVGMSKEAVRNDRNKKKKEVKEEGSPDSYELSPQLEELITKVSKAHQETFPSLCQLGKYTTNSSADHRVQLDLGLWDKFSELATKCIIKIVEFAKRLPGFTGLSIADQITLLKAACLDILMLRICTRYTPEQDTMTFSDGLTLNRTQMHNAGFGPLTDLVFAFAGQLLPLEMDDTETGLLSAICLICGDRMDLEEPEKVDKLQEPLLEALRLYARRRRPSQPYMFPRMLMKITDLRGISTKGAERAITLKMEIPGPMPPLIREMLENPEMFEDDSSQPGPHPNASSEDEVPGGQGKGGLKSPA
Excerpt: as §1, §2, §3

RXRα = target: T2, RXRα (Homo sapiens, UniProt P19793); test: holoreceptor transactivation assay, RXRα; type: cell-based; settings: for EC50: holoreceptor transactivation, RXRα, read-out: RXR Trans. EC50 α; for Emax: relative to 10^-6 M cyclopropyl penta-2,4-dienoic acid reference (RXRs), read-out: % efficacy (RXRα transactivation)
T2 construct: expressed in transfected cells
T2 sequence (P19793 1-462): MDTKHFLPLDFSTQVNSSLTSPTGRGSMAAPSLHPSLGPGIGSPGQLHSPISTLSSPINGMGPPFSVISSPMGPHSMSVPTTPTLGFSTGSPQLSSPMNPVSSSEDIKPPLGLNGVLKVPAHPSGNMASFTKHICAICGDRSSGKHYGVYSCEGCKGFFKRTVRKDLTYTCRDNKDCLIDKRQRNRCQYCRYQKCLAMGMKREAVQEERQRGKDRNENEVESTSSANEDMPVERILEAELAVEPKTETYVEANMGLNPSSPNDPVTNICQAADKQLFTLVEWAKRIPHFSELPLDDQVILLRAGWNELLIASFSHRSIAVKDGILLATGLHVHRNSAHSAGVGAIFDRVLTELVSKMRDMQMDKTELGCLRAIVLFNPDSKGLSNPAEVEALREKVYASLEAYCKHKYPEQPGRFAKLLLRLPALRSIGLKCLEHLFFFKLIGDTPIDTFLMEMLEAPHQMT
Excerpt: as §1, §2, §3

RXRβ = test: ligand binding assay, RXRβ; settings: read-out: RXR Bind Ki β
Excerpt: as §1, §2, §3

RARβ = target: T3, RARβ (Homo sapiens, UniProt P10826); test: ligand binding assay, RARβ; settings: read-out: RAR Bind. Ki β
T3 sequence (P10826 1-448 isoform P10826-2): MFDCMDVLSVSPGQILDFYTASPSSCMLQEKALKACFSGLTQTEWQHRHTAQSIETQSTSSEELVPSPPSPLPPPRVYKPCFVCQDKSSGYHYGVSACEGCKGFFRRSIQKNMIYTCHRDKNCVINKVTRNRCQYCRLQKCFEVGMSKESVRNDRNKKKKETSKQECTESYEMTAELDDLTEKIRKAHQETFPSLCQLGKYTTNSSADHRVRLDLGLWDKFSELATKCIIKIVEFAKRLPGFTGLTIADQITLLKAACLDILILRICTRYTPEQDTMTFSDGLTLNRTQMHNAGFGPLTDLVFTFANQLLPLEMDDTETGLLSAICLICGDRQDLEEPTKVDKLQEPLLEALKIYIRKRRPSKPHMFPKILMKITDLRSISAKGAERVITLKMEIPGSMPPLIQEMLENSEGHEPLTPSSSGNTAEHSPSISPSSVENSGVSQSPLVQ
Excerpt: as §1, §2, §3

SMILES	Ki (RXRγ)	Ki (RARγ)	EC50 (RXRα)	Emax (RXRα)	Ki (RXRβ)	Ki (RARβ)
CCN(c1ccc(C(=O)O)cc1)c1cc(C)c2c(c1)C(C)(C)CO2 [Compound 27, 4-[Ethyl-(3,3,7-trimethyl-2,3-dihydro-benzofuran-5-yl)-amino]-benzoic acid]	> 100000 nM	> 30 µM	1000 nM	80%	> 100000 nM	> 30 µM
CCc1cc(N(CC)c2ccc(C(=O)O)cc2)cc2c1OCC2(C)C [Compound 29, 4-[Ethyl-(3,3-dimethyl-7-ethyl-2,3-dihydro-benzofuran-5-yl)-amino]-benzoic acid]	> 1000 nM	8.4 µM	139 nM	117%	> 1000 nM	> 10 µM
CC(C)c1cc(N(C)c2ccc(C(=O)O)cc2)cc2c1OCC2(C)C [Compound 30, 4-[Methyl-(3,3-dimethyl-7-isopropyl-2,3-dihydro-benzofuran-5-yl)-amino]-benzoic acid]	> 10000 nM	3.3 µM	1000 nM	75%	4600 nM	> 30 µM
CCN(c1ccc(C(=O)O)cc1)c1cc(C(C)C)c2c(c1)C(C)(C)CO2 [Compound 31, 4-[Ethyl-(3,3-dimethyl-7-isopropyl-2,3-dihydro-benzofuran-5-yl)-amino]-benzoic acid]	4100 nM	4 µM	74 nM	116%	752 nM	29 µM
CCN(c1ccc(C(=O)O)cc1)c1cc(C(C)(C)C)c2c(c1)C(C)(C)CO2 [Compound 32, 4-[Ethyl-(7-t-butyl-3,3-dimethyl-2,3-dihydro-benzofuran-5-yl)-amino]-benzoic acid]	672 nM	2 µM	98 nM	103%	342 nM	> 1 µM
CCc1cc(N(c2ccc(C(=O)O)cc2)C(C)C)cc2c1OCC2(C)C [Compound 42, 4-[Isopropyl-(3,3-dimethyl-7-ethyl-2,3-dihydro-benzofuran-5-yl)-amino]-benzoic acid]	> 1000 nM	4.9 µM	203 nM	100%	> 1000 nM	> 10 µM
CC(C)c1cc(N(c2ccc(C(=O)O)cc2)C(C)C)cc2c1OCC2(C)C [Compound 43]		2.6 µM	16 nM	66%		> 10 µM

Other lines, results leading:

Ki (RXRγ)	Ki (RARγ)	EC50 (RXRα)	Emax (RXRα)	Ki (RXRβ)	Ki (RARβ)	SMILES
344 nM	1.6 µM	22 nM	73%	215 nM	> 1 µM	CC(C)N(c1ccc(C(=O)O)cc1)c1cc(C(C)(C)C)c2c(c1)C(C)(C)CO2 [Compound 44, 4-[Isopropyl-(7-t-butyl-3,3-dimethyl-2,3-dihydro-benzofuran-5-yl)-amino]-benzoic acid]
236 nM	2.7 µM	10 nM	92%	178 nM	> 10 µM	Cc1c(N(c2ccc(C(=O)O)cc2)C(C)C)cc2c(c1C(C)(C)C)OCC2(C)C [Compound 73, 4-[Isopropyl-(7-t-butyl-3,3,6-trimethyl-2,3-dihydro-benzofuran-5-yl)-amino]-benzoic acid]
> 1000 nM	> 10 µM	39 nM	107%	> 1000 nM	> 10 µM	CCN(c1ccc(C(=O)O)cc1)c1ccc2c(c1)C(C)(C)OC2(C)C [Compound 83, 4-[Ethyl-(1,1,3,3-tetramethyl-1,3-dihydro-isobenzofuran-5-yl)-amino]-benzoic acid]
> 1000 nM	> 10 µM	40 nM	121%	2000 nM	> 10 µM	CCCN(c1ccc(C(=O)O)cc1)c1ccc2c(c1)C(C)(C)OC2(C)C [Compound 84, 4-[n-Propyl-(1,1,3,3-tetramethyl-1,3-dihydro-isobenzofuran-5-yl)-amino]-benzoic acid]
> 1000 nM	> 10 µM	161 nM	122%	> 1000 nM	> 10 µM	CCCCN(c1ccc(C(=O)O)cc1)c1ccc2c(c1)C(C)(C)OC2(C)C [Compound 85, 4-[n-Butyl-(1,1,3,3-tetramethyl-1,3-dihydro-isobenzofuran-5-yl)-amino]-benzoic acid]
2100 nM	> 10 µM	57 nM	115%	2700 nM	> 10 µM	CC(C)N(c1ccc(C(=O)O)cc1)c1ccc2c(c1)C(C)(C)OC2(C)C [Compound 87, 4-[i-Propyl-(1,1,3,3-tetramethyl-1,3-dihydro-isobenzofuran-5-yl)-amino]-benzoic acid]

From patent US6093838A, “Amines substituted with a dihydro-benzofuranyl or with a dihydro-isobenzofuranyl group, an aryl or heteroaryl group and an alkyl group, having retinoid-like biological activity” (Allergan Sales, Inc., priority 1999, dated 2000)
